Key:
[1] = target: T1, androgen receptor (AR) (Homo sapiens, UniProt P10275); assay: SARD mediated AR degradation (western blot); conditions: for AR degradation (in words): at the concentrations assayed
T1 sequence (P10275 1-920): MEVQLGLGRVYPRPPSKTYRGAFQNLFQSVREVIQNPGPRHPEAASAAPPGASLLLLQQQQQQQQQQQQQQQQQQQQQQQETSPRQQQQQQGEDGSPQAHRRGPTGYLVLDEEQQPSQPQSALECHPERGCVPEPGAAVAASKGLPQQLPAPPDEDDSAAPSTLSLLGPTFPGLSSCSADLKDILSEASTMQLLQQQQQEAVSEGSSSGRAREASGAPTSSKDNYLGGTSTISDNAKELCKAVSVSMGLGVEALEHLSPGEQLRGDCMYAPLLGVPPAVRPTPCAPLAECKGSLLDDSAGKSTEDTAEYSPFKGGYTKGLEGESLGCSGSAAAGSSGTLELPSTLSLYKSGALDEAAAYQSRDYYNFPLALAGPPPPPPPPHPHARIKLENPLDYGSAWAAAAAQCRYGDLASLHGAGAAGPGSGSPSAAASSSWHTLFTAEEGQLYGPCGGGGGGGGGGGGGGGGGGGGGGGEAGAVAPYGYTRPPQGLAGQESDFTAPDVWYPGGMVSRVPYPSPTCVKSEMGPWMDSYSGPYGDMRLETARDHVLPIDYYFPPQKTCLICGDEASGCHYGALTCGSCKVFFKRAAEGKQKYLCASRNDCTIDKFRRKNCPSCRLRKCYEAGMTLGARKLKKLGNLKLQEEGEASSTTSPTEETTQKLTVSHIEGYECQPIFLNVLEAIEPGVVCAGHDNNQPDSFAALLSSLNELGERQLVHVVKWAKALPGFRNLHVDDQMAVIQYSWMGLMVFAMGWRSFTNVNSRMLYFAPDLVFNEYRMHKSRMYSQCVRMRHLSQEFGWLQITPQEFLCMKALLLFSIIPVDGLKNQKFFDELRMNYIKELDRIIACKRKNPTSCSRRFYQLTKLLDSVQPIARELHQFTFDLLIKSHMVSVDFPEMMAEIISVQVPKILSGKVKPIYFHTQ

[2] = system: androgen dependent LnCAP cells; assay: Proliferation of androgen dependent LnCAP prostate cancer cells; format: cell-based; conditions: 1 μM, several days
Description: (§1) FIG. 26, comprising FIGS. 26A-26C, is a series of graphs illustrating in vitro activity of SARDS compounds. FIG. 26A: effect of SARDS on cell proliferation of LnCAPs. FIG. 26B: effect of SARDS on the proliferation of non-AR dependent cell lines. FIG. 26C: effect of SARDS on androgen independent prostate cancer cells.

[3] = system: AR-independent HEK293 cells; assay: General cell toxicity in AR-independent HEK293 cells; format: cell-based; conditions: HEK293, 1 μM, 48 h
Method: as §1
(§2) To access general cell toxicity, AR-independent HEK293 and HELA cells were treated with 1 μM SARD 279.

[4] = system: AR-independent HELA cells; assay: General cell toxicity in AR-independent HELA cells; format: cell-based; conditions: 1 μM, 48 h
Method: as §1, §2

CC1(C)C(=O)N(c2ccc(C#N)c(C(F)(F)F)c2)C(=S)N1CCCCO [RU 59063, 4-[3-(4-hydroxybutyl)-4,4-dimethyl-5-oxo-2-thioxoimidazolidin-1-yl]-2-(trifluoromethyl)benzonitrile, reference compound]
AR degradation (in words) [1]: no degradation was detected

CC1(C)C(=O)N(c2ccc(C#N)c(C(F)(F)F)c2)C(=S)N1CCCC(=O)NCCOCCOCCOCCOC12CC3CC(CC(C3)C1)C2 [SARD 033, N-(2-(2-(2-(2-(Adamantan-1-yloxy)ethoxy)ethoxy)ethoxy)ethyl)-4-(3-(4-cyano-3-(trifluoromethyl)phenyl)-5,5-dimethyl-4-oxo-2-thioxoimidazolidin-1-yl)butanamide]
Cell growth / proliferation of LnCAP cells [2]: significantly attenuated cell growth

CC1(C)C(=O)N(c2ccc(C#N)c(C(F)(F)F)c2)C(=S)N1CCCC(=O)NCCOCCOC(=O)CC12CC3CC(CC(C3)C1)C2 [SARD 279, 2-(2-(4-(3-(4-Cyano-3-(trifluoromethyl)phenyl)-5,5-dimethyl-4-oxo-2-thioxoimidazolidin-1-yl)butanamido)ethoxy)ethyl 2-(adamantan-1-yl)acetate]
Cytotoxicity compared to vehicle [3]: did not display cytotoxic results | DC50 ([1]; read-out: DC50 (half maximum degradation concentration) of AR, AR degradation, western blot): 1 µM | Cytotoxicity compared to vehicle [4]: did not display cytotoxic results

CCOCCOCCNC(=O)CCCN1C(=S)N(c2ccc(C#N)c(C(F)(F)F)c2)C(=O)C1(C)C [SARD 280, 4-(3-(4-Cyano-3-(trifluoromethyl)phenyl)-5,5-dimethyl-4-oxo-2-thioxoimidazolidin-1-yl)-N-(2-(2-ethoxyethoxyl)ethyl)butanamide]
AR degradation (in words) [1]: affected degradation only at higher concentrations and did not achieve complete AR degradation at the concentrations assayed

— patent US20150119435A1, “COMPOUNDS USEFUL FOR PROMOTING PROTEIN DEGRADATION AND METHODS USING SAME” (YALE UNIVERSITY, priority 2012, published 2015)
